From US20230114728A1 (Venatorx Pharmaceuticals, Inc., priority 2019, published 2023) come the findings set out here.

What all share (experiment): Liquid broth MIC in Fastidious broth
What all share (type): cell-based

For test [1], the system named is N. gonorrhoeae ATCC 49226. The following applies: Neisseria gonorrhoeae. As for the experimental part:
(§1) Example V: In Vitro Antibacterial Assays for N. gonorrhoeae Strains
(§2) Additional antibacterial testing of the series was performed in 8 reference strains of N. gonorrhoeae (ATCC 49226, FA1090, WHO G, WHO L, WHO K, H041, WHO Z, and WHO Q). ATCC 49226, FA1090, WHO G, and WHO L produce wild type or wild-type like PBP2. WHO K, H041, WHO Z, and WHO Q produce mosaic PBP2. Liquid broth-based assays were used for antibacterial testing of PBP inhibitors in Neisseria gonorrhoeae. Briefly, cryo-preserved bacterial cultures of clinical strains were streaked for isolation on Chocolate Agar (72 g/L (2×) GC Agar Base (BD #228950) and 2% (2×) Hemoglobin was autoclaved at 121° C. for 20 minutes to sterilize. Once cooled to ˜50° C. the 2× GC Agar Base and 2× Hemoglobin solutions are combined and 1% IsoVitaleX Enrichment (BD #211876) was added to the solution). Strains were incubated at 36° C. and 5% CO2 to allow growth of colonies, 24 hours before inoculum preparation. 2-fold serial dilutions of test compounds were conducted in a 96 well plate with a final volume of 75 μL per well at 2-fold the final desired concentration in Fastidious broth (Remel #R07664). For preparation of assay inoculum, a direct suspension was prepared by aseptically swabbing all colonies from agar plates into culture tubes containing 2 mL of fresh sterile saline. After the dilution plates were set up, direct suspensions were then diluted in a cuvette containing sterile saline and the optical density was measured at 600 nm. Inocula were diluted such that 75 μL of this culture in Fastidious broth results in a starting bacterial concentration of 5×10^5 CFU/mL when added to the dilution plates. The plates were incubated for ˜24 hours at 36° C. and 5% CO2. The MIC was read visually as the lowest concentration well with <10% bacterial growth compared to wells of full growth.

The next test deals with N. gonorrhoeae FA1090. The following applies: Neisseria gonorrhoeae. As for the experimental part: as §1, §2
The test system of the next test is N. gonorrhoeae H041. Particulars: Neisseria gonorrhoeae, H041, read-out: Minimum Inhibitory Concentration, N. gonorrhoeae H041. As for the experimental part: as §1, §2
The subject of another test is N. gonorrhoeae WHO G. The following applies: Neisseria gonorrhoeae, read-out: Minimum Inhibitory Concentration, N. gonorrhoeae WHO G. As for the experimental part:
as §1, §2

The test system of another test is N. gonorrhoeae WHO K. The following applies: Neisseria gonorrhoeae, read-out: Minimum Inhibitory Concentration, N. gonorrhoeae WHO K. Here is the method: as §1, §2
For a further test, the system named is N. gonorrhoeae WHO L. Particulars: Neisseria gonorrhoeae, read-out: Minimum Inhibitory Concentration, N. gonorrhoeae WHO L. Here is the method:
as §1, §2

Where [2] appears, read: ATCC49226, N. gonorrhoeae strain ATCC 49226, Fastidious broth, read-out: Minimum Inhibitory Concentration, N. gonorrhoeae ATCC 49226.
The mark [3] stands for this setting: N. gonorrhoeae strain FA1090, Fastidious broth, read-out: Minimum Inhibitory Concentration, N. gonorrhoeae FA1090.
Where [4] appears, read: N. gonorrhoeae strain WHO G, Fastidious broth.
The mark [5] stands for this setting: N. gonorrhoeae strain WHO L, Fastidious broth.

Converted amounts (≈) assume the structure as drawn. Where two headings read alike, the source gives them in different places.

On to `NCCCN1CCN(C(=O)N[C@H](C(=O)N[C@H]2Cc3ccc(F)c(C(=O)O)c3OB2O)c2ccc(O)c(O)c2Cl)C(=O)C1=O` (single isomer, unassigned) [Example 28], for which the MIC (in test [1] (setting [2]); in the test on N. gonorrhoeae FA1090 (setting [3]); with N. gonorrhoeae H041; with N. gonorrhoeae WHO G (setting [4]); in the test with N. gonorrhoeae WHO K; in the test with N. gonorrhoeae WHO L (setting [5])) was over 64 mg/L throughout.
Consider `O=C(NC(C(=O)N[C@H]1Cc2ccc(F)c(C(=O)O)c2OB1O)c1ncc(O)cc1F)c1c(F)cc(O)c(O)c1Cl` (stereo partly drawn) [Example 10, (3R)-3-(2-(2-chloro-6-fluoro-3,4-dihydroxybenzamido)-2-(3-fluoro-5-hydroxypyridin-2-yl)acetamido)-7-fluoro-2-hydroxy-3,4-dihydro-2H-benzo[e][1,2]oxaborinine-8-carboxylic acid], for which the MIC is over 64 mg/L in test [1] (setting [2]); 16 to 32 mg/L (≈ 27.5 to 55 µM) in the test on N. gonorrhoeae FA1090 (setting [3]); over 64 mg/L in the test with N. gonorrhoeae H041; over 64 mg/L in the test with N. gonorrhoeae WHO G (setting [4]); over 64 mg/L with N. gonorrhoeae WHO K; over 64 mg/L in the test on N. gonorrhoeae WHO L (setting [5]).
Consider `CCN1CCN(C(=O)NC(C(=O)N[C@H]2Cc3cccc(C(=O)O)c3OB2O)c2ccc(O)c(NC(C)=O)c2)C(=O)C1=O` (stereo partly drawn) [Example 17, (3R)-3-(2-(3-acetamido-4-hydroxyphenyl)-2-(4-ethyl-2,3-dioxopiperazine-1-carboxamido)acetamido)-2-hydroxy-3,4-dihydro-2H-benzo[e][1,2]oxaborinine-8-carboxylic acid], for which the MIC in test [1] (setting [2]) is over 64 mg/L; in the test with N. gonorrhoeae FA1090 (setting [3]), 1 to 2 mg/L (≈ 1.72 to 3.44 µM); in the test on N. gonorrhoeae H041, over 64 mg/L; in the test with N. gonorrhoeae WHO G (setting [4]) it was over 64 mg/L; in the test with N. gonorrhoeae WHO K it was over 64 mg/L; in the test with N. gonorrhoeae WHO L (setting [5]), over 64 mg/L.
For the compound `CCN1CCN(C(=O)N[C@H](C(=O)N[C@H]2Cc3cccc(C(=O)O)c3OB2O)c2nc(Cl)c(C(=O)O)cc2F)C(=O)C1=O` [Example 19, 6-((S)-2-(((R)-8-carboxy-2-hydroxy-3,4-dihydro-2H-benzo[e][1,2]oxaborinin-3-yl)amino)-1-(4-ethyl-2,3-dioxopiperazine-1-carboxamido)-2-oxoethyl)-2-chloro-5-fluoronicotinic acid], the MIC was 16 to 32 mg/L (≈ 26.4 to 52.8 µM) in test [1] (setting [2]); 1 to 2 mg/L (≈ 1.65 to 3.3 µM) in the test with N. gonorrhoeae FA1090 (setting [3]); over 64 mg/L in the test on N. gonorrhoeae H041; 4 to 8 mg/L (≈ 6.6 to 13.2 µM) with N. gonorrhoeae WHO G (setting [4]); over 64 mg/L in the test with N. gonorrhoeae WHO K; over 64 mg/L in the test on N. gonorrhoeae WHO L (setting [5]).
Consider `CCN1CCN(C(=O)NC(C(=O)N[C@H]2Cc3cccc(C(=O)O)c3OB2O)c2ncc(C(=O)O)cc2F)C(=O)C1=O` (stereo partly drawn) [Example 20, 6-(2-(((R)-8-carboxy-2-hydroxy-3,4-dihydro-2H-benzo[e][1,2]oxaborinin-3-yl)amino)-1-(4-ethyl-2,3-dioxopiperazine-1-carboxamido)-2-oxoethyl)-5-fluoronicotinic acid], for which the MIC in test [1] (setting [2]) was 4 to 8 mg/L (≈ 7 to 14 µM); in the test with N. gonorrhoeae FA1090 (setting [3]), 1 to 2 mg/L (≈ 1.75 to 3.5 µM); with N. gonorrhoeae H041, 16 to 32 mg/L (≈ 28 to 56 µM); in the test with N. gonorrhoeae WHO G (setting [4]), 4 to 8 mg/L (≈ 7 to 14 µM); with N. gonorrhoeae WHO K, 16 to 32 mg/L (≈ 28 to 56 µM); with N. gonorrhoeae WHO L (setting [5]), over 64 mg/L.
`CCN1CCN(C(=O)NC(C(=O)N[C@H]2Cc3cccc(C(=O)O)c3OB2O)c2ccc(O)c(N(S(C)(=O)=O)S(C)(=O)=O)c2)C(=O)C1=O` (stereo partly drawn) [Example 21, (3R)-3-(2-(4-ethyl-2,3-dioxopiperazine-1-carboxamido)-2-(4-hydroxy-3-(N-(methylsulfonyl)methylsulfonamido)phenyl)acetamido)-2-hydroxy-3,4-dihydro-2H-benzo[e][1,2]oxaborinine-8-carboxylic acid]: the MIC is over 64 mg/L in test [1] (setting [2]); 4 to 8 mg/L (≈ 5.75 to 11.5 µM) in the test with N. gonorrhoeae FA1090 (setting [3]); over 64 mg/L with N. gonorrhoeae H041; over 64 mg/L in the test with N. gonorrhoeae WHO G (setting [4]); over 64 mg/L in the test on N. gonorrhoeae WHO K; over 64 mg/L in the test on N. gonorrhoeae WHO L (setting [5]).
In the case of `CCN1CCN(C(=O)NC(C(=O)N[C@H]2Cc3cccc(C(=O)O)c3OB2O)c2ccc(O)c(NS(C)(=O)=O)c2)C(=O)C1=O` (stereo partly drawn) [Example 22, (3R)-3-(2-(4-ethyl-2,3-dioxopiperazine-1-carboxamido)-2-(4-hydroxy-3-(methylsulfonamido)phenyl)acetamido)-2-hydroxy-3,4-dihydro-2H-benzo[e][1,2]oxaborinine-8-carboxylic acid], the MIC in test [1] (setting [2]) is over 64 mg/L; in the test on N. gonorrhoeae FA1090 (setting [3]), 1 to 2 mg/L (≈ 1.62 to 3.24 µM); with N. gonorrhoeae H041, over 64 mg/L; in the test on N. gonorrhoeae WHO G (setting [4]) it was 16 to 32 mg/L (≈ 25.9 to 51.8 µM); with N. gonorrhoeae WHO K it was over 64 mg/L; in the test on N. gonorrhoeae WHO L (setting [5]) it was over 64 mg/L.
In the case of `NCCN1CCN(C(=O)NC(C(=O)N[C@H]2Cc3ccc(F)c(C(=O)O)c3OB2O)c2nc(N)sc2F)C(=O)C1=O` (stereo partly drawn) [Example 24, (3R)-3-(2-(2-amino-5-fluorothiazol-4-yl)-2-(4-(2-aminoethyl)-2,3-dioxopiperazine-1-carboxamido)acetamido)-7-fluoro-2-hydroxy-3,4-dihydro-2H-benzo[e][1,2]oxaborinine-8-carboxylic acid], the MIC is over 64 mg/L in test [1] (setting [2]); 16 to 32 mg/L (≈ 27.5 to 55 µM) in the test on N. gonorrhoeae FA1090 (setting [3]); over 64 mg/L in the test on N. gonorrhoeae H041; 16 to 32 mg/L (≈ 27.5 to 55 µM) in the test with N. gonorrhoeae WHO G (setting [4]); over 64 mg/L with N. gonorrhoeae WHO K; over 64 mg/L in the test with N. gonorrhoeae WHO L (setting [5]).
For `CCN1CCN(C(=O)NC(C(=O)N[C@H]2Cc3cccc(C(=O)O)c3OB2O)c2ccc(O)c(N)c2)C(=O)C1=O` (stereo partly drawn) [Example 29, (3R)-3-(2-(3-amino-4-hydroxyphenyl)-2-(4-ethyl-2,3-dioxopiperazine-1-carboxamido)acetamido)-2-hydroxy-3,4-dihydro-2H-benzo[e][1,2]oxaborinine-8-carboxylic acid], the MIC was over 64 mg/L in test [1] (setting [2]); 4 to 8 mg/L (≈ 7.42 to 14.8 µM) in the test with N. gonorrhoeae FA1090 (setting [3]); over 64 mg/L in the test on N. gonorrhoeae H041; 16 to 32 mg/L (≈ 29.7 to 59.3 µM) with N. gonorrhoeae WHO G (setting [4]); over 64 mg/L in the test on N. gonorrhoeae WHO K; over 64 mg/L in the test with N. gonorrhoeae WHO L (setting [5]).
`CCN1CCN(C(=O)NC(C(=O)N[C@H]2Cc3cccc(C(=O)O)c3OB2O)c2ccc(O)c(NS(N)(=O)=O)c2)C(=O)C1=O` (stereo partly drawn) [Example 30, (3R)-3-(2-(4-ethyl-2,3-dioxopiperazine-1-carboxamido)-2-(4-hydroxy-3-(sulfamoylamino)phenyl)acetamido)-2-hydroxy-3,4-dihydro-2H-benzo[e][1,2]oxaborinine-8-carboxylic acid]: the MIC in test [1] (setting [2]) is over 64 mg/L; in the test on N. gonorrhoeae FA1090 (setting [3]) it was 1 to 2 mg/L (≈ 1.62 to 3.23 µM); with N. gonorrhoeae H041, over 64 mg/L; with N. gonorrhoeae WHO G (setting [4]) it was 16 to 32 mg/L (≈ 25.9 to 51.7 µM); in the test on N. gonorrhoeae WHO K, over 64 mg/L; in the test on N. gonorrhoeae WHO L (setting [5]) it was over 64 mg/L.
As for `N[C@@H](C(=O)N[C@H]1Cc2ccc(F)c(C(=O)O)c2OB1O)c1ccc(OS(=O)(=O)F)cc1` [Example 32, (R)-3-((R)-2-amino-2-(4-((fluorosulfonyl)oxy)phenyl)acetamido)-7-fluoro-2-hydroxy-3,4-dihydro-2H-benzo[e][1,2]oxaborinine-8-carboxylic acid], the MIC in test [1] (ATCC49226, read-out: Minimum Inhibitory Concentration, N. gonorrhoeae ATCC 49226) was over 64 mg/L; in the test with N. gonorrhoeae FA1090 (FA1090, read-out: Minimum Inhibitory Concentration, N. gonorrhoeae FA1090) it was over 64 mg/L; with N. gonorrhoeae H041, over 64 mg/L; in the test with N. gonorrhoeae WHO G, over 64 mg/L; in the test with N. gonorrhoeae WHO K, over 64 mg/L; in the test with N. gonorrhoeae WHO L, over 64 mg/L.
On to `NS(=O)(=O)NC(C(=O)N[C@H]1Cc2ccc(F)c(C(=O)O)c2OB1O)c1ncc(O)cc1F` (stereo partly drawn) [Example 43, (3R)-7-fluoro-3-(2-(3-fluoro-5-hydroxypyridin-2-yl)-2-(sulfamoylamino)acetamido)-2-hydroxy-3,4-dihydro-2H-benzo[e][1,2]oxaborinine-8-carboxylic acid], for which the MIC (in test [1] (setting [2]); in the test on N. gonorrhoeae FA1090 (setting [3]); in the test with N. gonorrhoeae H041; with N. gonorrhoeae WHO G (setting [4]); in the test on N. gonorrhoeae WHO K; in the test on N. gonorrhoeae WHO L (setting [5])) was over 64 mg/L each time.
Take `NS(=O)(=O)NC(C(=O)N[C@H]1Cc2cccc(C(=O)O)c2OB1O)c1ccc(C(=O)O)c(F)c1` (stereo partly drawn) [Example 44, (3R)-3-(2-(4-carboxy-3-fluorophenyl)-2-(sulfamoylamino)acetamido)-2-hydroxy-3,4-dihydro-2H-benzo[e][1,2]oxaborinine-8-carboxylic acid]: the MIC (in test [1] (setting [2]); in the test with N. gonorrhoeae FA1090 (setting [3]); in the test on N. gonorrhoeae H041; in the test with N. gonorrhoeae WHO G (setting [4]); in the test on N. gonorrhoeae WHO K; with N. gonorrhoeae WHO L (setting [5])) was over 64 mg/L each time.
